B1: horse radish peroxidase (protein, UniProt P00433 31-338, looked up)
Peroxidase C1A: QLTPTFYDNSCPNVSNIVRDTIVNELRSDPRIAASILRLHFHDCFVNGCDASILLDNTTSFRTEKDAFGNANSARGFPVIDRMKAAVESACPRTVSCADLLTIAAQQSVTLAGGPSWRVPLGRRDSLQAFLDLANANLPAPFFTLPQLKDSFRNVGLNRSSDLVALSGGHTFGKNQCRFIMDRLYNFSNTGLPDPTLNTTYLQTLRGLCPLNGNLSALVDFDLRTPTIFDNKYYVNLEEQKGLIQSDQELFSSPNATDTIPLVRSFANSTQTFFNAFVEAMDRMGNITPLTGTQGQIRLNCRVVNSNS

Experiments:
[1] = tested on: human foreskin fibroblast cells (HFF); experiment: Soluble collagen I, III and VI in HFF conditioned media (direct coat ELISA); assay type: cell-based; details: for ECM protein levels in the media of HFF cells: 6 hour treatment, following 72 hours; for collagen I concentration in the media: ARP, HRP, SBP 12.5 μg/ml, LP 160 μg/ml, MP 250 μg/ml, untreated control 0.08 μg/ml; for collagen III levels: untreated control 0.11 μg/ml; for collagen VI in the cell media: untreated control 0.03 ug/ml; for collagen VI levels: both 5 and 7 days; for increase in collagen VI, steady state: 72 hours (ARP response not statistically significant, p=0.08)
Protocol: Primary human foreskin fibroblast cells (HFF) were seeded into 96 well plates at a density of 1.2×10^4 cells/well and cultured overnight in 10% fetal bovine serum/Dulbecco's minimum essential media (10% FBS/DMEM) at 37° C. and 5% CO2. The cells were then starved overnight in serum free DMEM and triplicate wells treated for six hours with a range of doses of proteins with peroxidase activity; horse radish peroxidase (HRP; 0.2-50 ug/ml), Arthromyces ramosus peroxidase (ARP; 0.2-50 ug/ml), microperoxidase (MP; 8-500 ug/ml), soy bean peroxidase (SBP; 0.2-100 ug/ml) and lactoperoxidase (LP; 10-310 ug/ml) (all obtained from Sigma-Aldrich). At the end of the six hour treatment period, the media was aspirated and replaced with fresh serum free DMEM and the cells cultured for a further 72 hours. […] This assay measures the reduction of oxidized, blue nonfluorescent Alamar Blue reagent to a pink fluorescent dye in the cell medium, such that the higher the amount of reduction, the greater the cell number and/or activity (O'Brien Eur J Biochem 267 2000). Briefly, cells were bathed in a 10% Alamar Blue/phosphate-buffered saline (PBS) solution for 30-60 minutes and fluorescence measured at wavelengths of 485 nm excitation and 595 nm emission using a Wallac Victor Multilabel HTS counter. Relative fluorescent units (RFU) for each sample were normalized to control wells (DMEM only treated cells) and data expressed as mean±standard error of the mean (sem) for triplicate wells. Experiments were repeated at least three times with the combined data from all experiments shown.
The amount of soluble collagen types I, III, and VI in HFF conditioned media was measured by a direct coat ELISA method using standard curves constructed from purified human collagen I, III or VI (extracted from human placenta; col I, BD Biosciences; col III and VI, Rocklands Immunochemicals) and fibronectin (extracted from human plasma, Chemicon). Samples and standards (20 μl/well) were added to a 384 well spectraplate (Packard BioScience) and left at room temperature (RT) overnight. The spectraplate was then washed 6 times with PBS-tween 0.05% (PBS-T) and 2.5% bovine serum albumin (BSA)/PBS blocking solution added to each well and the plate incubated for 1 hour at RT. The plate was then washed 6 times with PBS-T and primary antibody (0.25 μg/ml rabbit-anti-human-collagen I polyclonal; 2 μg/ml rabbit-anti-human-collagen III polyclonal; 0.25 μg/ml rabbit-anti-human-collagen VI polyclonal; 0.2 μg/ml rabbit-anti-human-fibronectin polyclonal, all from Rockland Immunochemicals) in 5% non-fat dairy milk added to each well for four hours at RT. After washing (6×PBS-T), europium tagged anti-rabbit secondary antibody (0.5 μg/ml 1% BSA/PBS; Wallac Oy) was added for 1 hour at RT. After a final wash (6×PBS-T), enhancement solution was added for at least 10 minutes and fluorescence measured at excitation 340 nm and emission 615 nm using a Wallac Victor Multilabel HTS counter. The respective ECM concentration of each sample was determined from the standard curve (μg/ml) and normalized to control wells (DMEM only treated cells) with the mean±sem for triplicate wells calculated. Experiments were repeated at least three times with the combined data from all experiments shown.

[2] = tested on: human foreskin fibroblast cells (HFF cells); experiment: Repeated stimulation of collagen I production; assay type: cell-based; details: for total collagen I, stimulated twice versus once within a seven day culture period: day 0-2 plus day 2-7 versus day 0-7; for collagen I production after a second stimulation relative to the first stimulation: restimulated after 48 hours, further 5 days
Protocol: Experiments were performed to ensure human fibroblast cells could be stimulated to increase ECM protein production by proteins having peroxidase activity after more than one application of the proteins having peroxidase activity. The capacity to respond repeatedly to the proteins having peroxidase activity provides important utility for the generation of ECM in vitro, particularly given that spent culture media needs to be replaced on a regular basis to maintain the viability of the cells. These experiments were performed using human foreskin fibroblast cells (HFF cells) seeded into 96 well plates at a density of 1.2×10^4 cells/well and cultured for one week in 10% fetal bovine serum/Dulbecco's minimum essential media (10% FBS/DMEM) at 37° C. and 5% CO2 (as described in Example 3). The confluent cells were then starved overnight in serum free DMEM and triplicate wells treated for six hours with MP, ARP and LP as representative proteins having peroxidase activity or the control agents transforming growth factor β2 (TGFβ2; R&D Systems) and 10% FBS (JRH BioSciences). After 48 hours, the conditioned media was collected for measurement of collagen I (as a representative ECM protein) and the cells either restimulated for six hours with fresh solutions containing proteins having peroxidase activity or control agents or the media was replaced with fresh serum free DMEM. The cells were cultured for a further 5 days after which the media was collected a second time for the measurement of collagen I. Media was also collected from replicate wells treated at the start of the experiment and left for 7 days (total culture period) for comparison.

adult fibroblast cells = experiment: ECM production within INTEGRA scaffold (collagen I immunohistochemistry); assay type: cell-based, human
Excerpt: INTEGRA® was cut into lcm x lcm pieces using a sterile scalpel, the pieces transferred to a petri dish using sterile forceps and washed four times each with PBS followed by serum-free DMEM, to remove the alcohol storage medium and to equilibrate the porous scaffold for exposure to cells. After the last wash, the INTEGRA® pieces were transferred to the wells of a 12 well tissue culture plate (collagen layer facing up) immersed in media containing proteins having peroxidase activity. This “pre-treatment” of the INTEGRA® with proteins having peroxidase activity was performed for up to 16 hours at 37° C. in a CO2 incubator. After the “pre-incubation” period, the media was replaced with fresh DMEM supplemented with 10% FBS (ie normal growth media as the control) containing 5×10^5 human fibroblast cells plus or minus proteins having peroxidase activity. After allowing 24 hours for the fibroblast cells to attach to the collagen matrix of the INTEGRA® scaffold, the INTEGRA® pieces were transferred to fresh 12 well plates to ensure any cells not attached to the matrix surface were removed. Fresh media containing proteins with peroxidase activity were added to the wells and the INTEGRA® pieces incubated for up to 14 days (“post-treatment” period) with the media changed every 7 days as necessary. At the end of the experiment the INTEGRA® pieces were harvested and fixed in 10% buffered formaldehyde before they were processed, embedded in paraffin wax, cut in cross-section and placed onto microscope slides for histological and immunohistochemical analysis.
To confirm proteins having peroxidase activity promote the generation of a three-dimensional human tissue by stimulating the production of collagen and other ECM components to fill the interstices of a three-dimensional framework or scaffold, INTEGRA® pieces collected from the experiments described in Example 3 were analysed for the production of Collagen I (as a representative ECM protein) using immunohistochemistry. […]

[3] = doses between 6.25 and 50 μg/ml

| Molecule | ECM protein levels in the media of HFF cells [1] | collagen I concentration in the media ([1]; 5 days) [µg/mL] | collagen III levels ([1]; 5 days) [µg/mL] | collagen VI in the cell media ([1]; 7 days) [µg/mL] | collagen VI levels [1] | total collagen I, stimulated twice versus once within a seven day culture period [2] | collagen I production after a second stimulation relative to the first stimulation [2] | increase in collagen I compared to controls ([1]; 0.4 μg/ml, 72 hours) [fold] | increase in collagen VI, steady state [1, 3] | other results |
| --- | --- | --- | --- | --- | --- | --- | --- | --- | --- | --- |
| lactoperoxidase [LP] | increased ECM protein levels dose dependently | 1.1 | 0.18 | 0.07 | increased the collagen VI levels | markedly greater total collagen I levels | at least equivalent to that obtained with the first stimulation | – | – | increase in collagen I compared to controls ([1]; 80 μg/ml, 6 h treatment, 72 hours): 4 fold; increase in collagen I compared to controls ([1]; 310 μg/ml, 72 hours): 8 fold; increase in collagen VI levels ([1]; 160 and 310 μg/ml, 72 hours): 2 fold; changes in collagen III levels (non-significant) ([1]; doses from 10-310 μg/ml, 72 hours): 1.5-1.7 fold |
| soy bean peroxidase [SBP] | increased ECM protein levels dose dependently | – | 0.15 | 0.09 | increased the collagen VI levels | – | – | 1.6 | – | increase in collagen VI ([1]; 0.4 μg/ml, 72 hours): 1.2 fold; increase in collagen VI ([1]; 50 μg/ml, 72 hours): 5.4 fold; increase in collagen I compared to controls ([1]; 25 and 50 μg/ml, 72 hours): 10.5 fold; increase in collagen III, steady state ([1]; between 12.5 and 50 μg/ml, 72 hours): 2.1-2.3 fold; cell-associated ECM within the interstices of the scaffold (adult fibroblast cells; 25 μg/ml before and after addition of cells, 7 days, versus 7 and 14 day controls): much more cell-associated ECM was evident |
| Arthromyces ramosus peroxidase [ARP] | increased ECM protein levels dose dependently | 0.6 | – | 0.11 | increased the collagen VI levels | markedly greater total collagen I levels | produced a greater response when stimulated a second time | 1.4 | 2 fold | increase in collagen I compared to controls ([1]; 25 μg/ml, 72 hours): 5.8 fold; decrease in collagen III compared to control levels ([1]; 25 and 50 μg/ml, 72 hours): 50%; collagen I concentration in the media ([1]; 7 days): 0.6 µg/mL; increase in collagen III ([1]; any dose used, 72 hours): did not induce a significant increase |
| microperoxidase [MP] | increased ECM protein levels dose dependently | 0.17 | – | – | – | responded in a similar way to cells treated with TGFβ2 | at least equivalent to that obtained with the first stimulation | – | – | increase in collagen VI ([1]; any dose used, 72 hours): did not induce a significant increase |
| B1 | increased ECM protein levels dose dependently | – | 0.22 | 0.13 | increased the collagen VI levels | – | – | – | 3-3.5 fold | increase in collagen I compared to controls ([1]; 0.2 μg/ml, 72 hours): 1.5 fold; increase in collagen VI compared to controls ([1]; 1.56 μg/ml, 72 hours): 2 fold; increase in collagen III compared to controls ([1]; 3.12 μg/ml, 72 hours): 3 fold; increase in collagen I compared to controls ([1]; 50 μg/ml, 72 hours): 10 fold; increase in collagen III compared to controls ([1]; 25 and 50 μg/ml, 72 hours): 4 fold; collagen III level ([1]; 7 days, 12.5 μg/ml, untreated control 0.06 μg/ml): 0.3 µg/mL; increase in collagen I, steady state response ([1]; doses between 6.25 and 50 μg/ml, 72 hours): 9-10 fold; ECM production and integration (adult fibroblast cells; 25 μg/ml, 14 days, versus 14 days standard conditions): much greater ECM production and integration |
